Our source for the water dispersibility and bioavailability values is patent US11583498B2 (Wakamono Corporation, priority 2020, dated 2023).

The nature of data set [1]: Water dispersibility comparison (FIG. 1). The data set is classed as physicochemical. To be noted: dispersed in water, vials of FIG. 1. An excerpt:
With reference to FIG. 1, water dispersibility was compared between the known 95% Tan IIA and nano Tan IIA obtained by the process according to the present invention, in which Vial A represented the known 95% Tan IIA dispersed in water, Vial B represented nano Tan IIA dispersed in water obtained by the process according to the present invention.

The conditions of data set [2]: oral administration; cited from earlier work.

As for `Cc1coc2c1C(=O)C(=O)c1c-2ccc2c1CCCC2(C)C` [Tan IIA, Tanshinone IIA], the water dispersibility entry in data set [1] is given as “water insoluble”. The bioavailability entry in data set [2] is “low bioavailability”.
